Assay results published in ChEMBL document CHEMBL5724914, “Linking interpersonal differences in gut microbiota composition and drug biotransformation activity” (2024).

Legend:
[1] = (§1) The drug is tested on Z-026 corresponding to metagenome with ENA study accession number: PRJEB37062 and ENA sample accession number: ERS12561825 for biotransformation under anaerobic condition. The drug concentrations were measured over 9 timepoints collected between 0 and 24 hours of incubation by liquid-chromatography-coupled mass spectrometry (LC–MS); settings: 2 µM
[2] = (§2) The drug is tested on Z-024 corresponding to pig gut metagenome with ENA study accession number: PRJEB37062 and ENA sample accession number: ERS12561823 for biotransformation under anaerobic condition. The drug concentrations were measured over 9 timepoints collected between 0 and 24 hours of incubation by liquid-chromatography-coupled mass spectrometry (LC–MS); settings: 2 µM
[3] = as §2, with “Z-020” for “Z-024”, “rabbit” for “pig”, “ERS12561819” for “ERS12561823”; settings: 2 µM
[4] = as §1, with “Z-005” for “Z-026”, “ERS12561805” for “ERS12561825”; settings: 2 µM
[5] = as §2, with “Z-002” for “Z-024”, “rabbit” for “pig”, “ERS12561802” for “ERS12561823”; settings: 2 µM
[6] = as §2, with “WLS-350” for “Z-024”, “human” for “pig”, “ERS12561789” for “ERS12561823”; settings: 2 µM
[7] = as §2, with “WLS-090” for “Z-024”, “human” for “pig”, “ERS12561753” for “ERS12561823”; settings: 2 µM
[8] = as §2, with “WLS-052” for “Z-024”, “human” for “pig”, “ERS12561747” for “ERS12561823”; settings: 2 µM
[9] = as §2, with “WLS-039” for “Z-024”, “human” for “pig”, “ERS12561746” for “ERS12561823”; settings: 2 µM
[10] = human gut metagenome, 24 h, 2 µM
[11] = human gut metagenome, 24 h, 2 µM; remark: listed apart in the source
[12] = human gut metagenome, 24 h, 2 µM; remark: listed apart in the source
[13] = human gut metagenome, 24 h, 2 µM; remark: listed apart in the source
[14] = human gut metagenome, 24 h, 2 µM; remark: listed apart in the source
[15] = human gut metagenome, 24 h, 2 µM; remark: listed apart in the source
[16] = human gut metagenome, 24 h, 2 µM; remark: listed apart in the source
[17] = human gut metagenome, 24 h, 2 µM; remark: listed apart in the source
[18] = human gut metagenome, 24 h, 2 µM; remark: listed apart in the source
[19] = human gut metagenome, 24 h, 2 µM; remark: listed apart in the source
[20] = human gut metagenome, 24 h, 2 µM; remark: listed apart in the source
Also: call rule not given here.

Row | SMILES | Bacterial Biotransformation [1] | Bacterial Biotransformation [2] | Bacterial Biotransformation [3] | Bacterial Biotransformation [4] | Bacterial Biotransformation [5] | Bacterial Biotransformation [6] | Bacterial Biotransformation [7] | Bacterial Biotransformation [8] | Bacterial Biotransformation [9] | Bacterial Biotransformation [10] | Bacterial Biotransformation [11] | Bacterial Biotransformation [12] | Bacterial Biotransformation [13] | Bacterial Biotransformation [14] | Bacterial Biotransformation [15] | Bacterial Biotransformation [16] | Bacterial Biotransformation [17] | Bacterial Biotransformation [18] | Bacterial Biotransformation [19] | Bacterial Biotransformation [20]
1 | C=C[C@H]1CN2CC[C@H]1C[C@H]2[C@H](O)c1ccnc2ccc(OC)cc12.C=C[C@H]1CN2CC[C@H]1C[C@H]2[C@H](O)c1ccnc2ccc(OC)cc12.O.O.O=S(=O)(O)O [QUININE SULFATE] | Compound NOT metabolized | Compound NOT metabolized | Compound NOT metabolized | Compound NOT metabolized | Compound NOT metabolized | Compound NOT metabolized | Compound metabolized | Compound NOT metabolized | Compound NOT metabolized | Compound NOT metabolized | Compound NOT metabolized | Compound NOT metabolized | Compound NOT metabolized | Compound NOT metabolized | Compound NOT metabolized | Compound metabolized | Compound NOT metabolized | Compound metabolized | Compound NOT metabolized | Compound NOT metabolized
2 | O=C(CCCN1CCC2(CC1)C(=O)NCN2c1ccccc1)c1ccc(F)cc1 [SPIPERONE] | Compound NOT metabolized | Compound NOT metabolized | Compound NOT metabolized | Compound NOT metabolized | Compound NOT metabolized | Compound NOT metabolized | Compound NOT metabolized | Compound NOT metabolized | Compound NOT metabolized | Compound NOT metabolized | Compound NOT metabolized | Compound NOT metabolized | Compound NOT metabolized | Compound metabolized | Compound NOT metabolized | Compound metabolized | Compound NOT metabolized | Compound NOT metabolized | Compound metabolized | Compound NOT metabolized
3 | CC(=O)OCC(CCn1cnc2cnc(N)nc21)COC(C)=O [FAMCICLOVIR] | Compound metabolized | Compound metabolized | Compound metabolized | Compound metabolized | Compound metabolized | Compound metabolized | Compound metabolized | Compound metabolized | Compound metabolized | Compound metabolized | Compound metabolized | Compound metabolized | Compound metabolized | Compound metabolized | Compound metabolized | Compound metabolized | Compound metabolized | Compound metabolized | Compound metabolized | Compound NOT metabolized
4 | CCc1cccc2c3c([nH]c12)C(CC)(CC(=O)O)OCC3 (stereo not given) [ETODOLAC] | Compound NOT metabolized | Compound NOT metabolized | Compound NOT metabolized | Compound NOT metabolized | Compound NOT metabolized | Compound NOT metabolized | Compound metabolized | Compound metabolized | Compound metabolized | Compound metabolized | Compound NOT metabolized | Compound metabolized | Compound metabolized | Compound metabolized | Compound metabolized | Compound metabolized | Compound metabolized | Compound metabolized | Compound metabolized | Compound NOT metabolized
5 | CCCC(C)(COC(N)=O)COC(=O)NC(C)C (stereo not given) [CARISOPRODOL] | Compound NOT metabolized | Compound metabolized | Compound metabolized | Compound metabolized | Compound metabolized | Compound metabolized | Compound metabolized | Compound metabolized | Compound metabolized | Compound metabolized | Compound metabolized | Compound metabolized | Compound metabolized | Compound NOT metabolized | Compound metabolized | Compound metabolized | Compound metabolized | Compound metabolized | Compound NOT metabolized | Compound NOT metabolized
6 | COc1ccc(C(CN(C)C)C2(O)CCCCC2)cc1 (stereo not given) [VENLAFAXINE] | Compound NOT metabolized | Compound NOT metabolized | Compound NOT metabolized | Compound NOT metabolized | Compound NOT metabolized | Compound NOT metabolized | Compound NOT metabolized | Compound NOT metabolized | Compound NOT metabolized | Compound NOT metabolized | Compound NOT metabolized | Compound NOT metabolized | Compound NOT metabolized | Compound metabolized | Compound NOT metabolized | Compound metabolized | Compound NOT metabolized | Compound NOT metabolized | Compound NOT metabolized | Compound NOT metabolized
7 | Cc1cc(C)cc(OCC2CNC(=O)O2)c1 (stereo not given) [METAXALONE] | Compound metabolized | Compound NOT metabolized | Compound NOT metabolized | Compound NOT metabolized | Compound NOT metabolized | Compound metabolized | Compound metabolized | Compound metabolized | Compound metabolized | Compound metabolized | Compound metabolized | Compound metabolized | Compound metabolized | Compound NOT metabolized | Compound metabolized | Compound metabolized | Compound NOT metabolized | Compound metabolized | Compound metabolized | Compound NOT metabolized
8 | Br.COc1ccc2c(c1)[C@]13CCCC[C@@H]1[C@H](C2)N(C)CC3.O [DEXTROMETHORPHAN HYDROBROMIDE] | Compound NOT metabolized | Compound metabolized | Compound metabolized | Compound NOT metabolized | Compound metabolized | Compound metabolized | Compound metabolized | Compound NOT metabolized | Compound NOT metabolized | Compound NOT metabolized | Compound NOT metabolized | Compound NOT metabolized | Compound NOT metabolized | Compound metabolized | Compound NOT metabolized | Compound metabolized | Compound NOT metabolized | Compound NOT metabolized | Compound NOT metabolized | Compound NOT metabolized
